Assay results: patent US20230113037A1 (Bayer Aktiengesellschaft, priority 2019, published 2023)
Like-named read-outs stand apart in the source and are kept apart here.

Key:
AHR [1] = biological target: T1, AHR (Homo sapiens, UniProt P35869); assay: In vitro assay 1: antagonism in human cell line (AHR transactivation, firefly luciferase reporter, kynurenic acid prestimulated); assay type: cell-based; details: AHR Antagonism Human IC50 [M]
T1 construct: U87 MG glioblastoma cells (ATCC #HTB-14) endogenously expressing AHR; endogenous in cells; host or cells: U87 MG glioblastoma cells (ATCC #HTB-14)
T1 sequence (P35869 11-848): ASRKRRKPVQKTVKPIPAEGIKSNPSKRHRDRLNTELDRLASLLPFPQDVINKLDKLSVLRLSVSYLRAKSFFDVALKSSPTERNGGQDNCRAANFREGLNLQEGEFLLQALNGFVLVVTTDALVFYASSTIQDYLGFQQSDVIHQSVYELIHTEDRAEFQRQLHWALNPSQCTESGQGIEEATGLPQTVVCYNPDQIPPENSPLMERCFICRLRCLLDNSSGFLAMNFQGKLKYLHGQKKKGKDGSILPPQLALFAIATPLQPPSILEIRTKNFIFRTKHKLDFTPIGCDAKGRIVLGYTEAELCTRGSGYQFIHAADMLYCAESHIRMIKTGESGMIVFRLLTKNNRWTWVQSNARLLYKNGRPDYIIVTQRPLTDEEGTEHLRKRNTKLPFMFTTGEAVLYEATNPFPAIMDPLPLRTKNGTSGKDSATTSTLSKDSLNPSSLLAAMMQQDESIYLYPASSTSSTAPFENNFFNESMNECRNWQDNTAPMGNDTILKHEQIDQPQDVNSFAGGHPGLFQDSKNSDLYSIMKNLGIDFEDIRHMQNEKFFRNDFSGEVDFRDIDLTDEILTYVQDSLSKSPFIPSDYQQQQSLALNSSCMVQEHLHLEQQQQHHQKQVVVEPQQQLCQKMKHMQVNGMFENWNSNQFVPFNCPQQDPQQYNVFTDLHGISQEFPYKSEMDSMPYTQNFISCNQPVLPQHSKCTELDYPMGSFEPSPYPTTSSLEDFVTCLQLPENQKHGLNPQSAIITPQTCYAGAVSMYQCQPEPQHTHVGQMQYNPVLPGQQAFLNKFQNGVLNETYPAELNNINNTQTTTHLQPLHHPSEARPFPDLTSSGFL
In short: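 Antagonism is measured against kynurenic acid prestimulation in U87 MG glioblastoma cells carrying stable DRE-luciferase and Renilla reporters. Positive inhibition control: 150 μM kynurenic acid with 5 μM staurosporine. Values are normalized to controls; repeats are averaged or given as medians.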

AHR [2] = biological target: T2, AHR (Mus musculus, UniProt P30561); assay: In vitro assay 3: antagonism in mouse cell line (AHR transactivation, firefly luciferase reporter, kynurenic acid prestimulated); assay type: cell-based
T2 sequence (P30561 1-848 P471L/N533S/M589L): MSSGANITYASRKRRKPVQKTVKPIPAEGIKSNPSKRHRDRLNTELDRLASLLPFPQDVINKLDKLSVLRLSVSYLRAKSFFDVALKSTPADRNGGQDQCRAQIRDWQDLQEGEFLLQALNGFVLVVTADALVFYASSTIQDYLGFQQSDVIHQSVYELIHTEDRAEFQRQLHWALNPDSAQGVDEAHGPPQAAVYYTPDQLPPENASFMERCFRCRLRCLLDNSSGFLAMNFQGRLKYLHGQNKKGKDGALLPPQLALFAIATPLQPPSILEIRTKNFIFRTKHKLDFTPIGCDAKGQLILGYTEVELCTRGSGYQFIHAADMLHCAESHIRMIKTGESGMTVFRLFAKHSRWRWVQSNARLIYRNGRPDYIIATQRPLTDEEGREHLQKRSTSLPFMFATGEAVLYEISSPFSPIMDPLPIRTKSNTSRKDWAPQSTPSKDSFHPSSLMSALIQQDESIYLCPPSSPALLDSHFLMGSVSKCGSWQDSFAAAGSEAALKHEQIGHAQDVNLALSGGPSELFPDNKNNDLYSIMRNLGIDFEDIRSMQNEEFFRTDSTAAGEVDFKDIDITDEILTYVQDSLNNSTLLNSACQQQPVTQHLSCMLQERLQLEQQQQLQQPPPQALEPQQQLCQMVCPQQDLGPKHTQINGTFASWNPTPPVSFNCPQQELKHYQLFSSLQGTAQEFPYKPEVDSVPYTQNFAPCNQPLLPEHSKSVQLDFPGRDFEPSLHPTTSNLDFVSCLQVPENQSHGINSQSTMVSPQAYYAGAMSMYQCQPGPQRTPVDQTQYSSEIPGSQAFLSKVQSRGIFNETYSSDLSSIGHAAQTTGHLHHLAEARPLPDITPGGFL
In short: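 Antagonism read as reduced firefly luciferase signal (SteadyGlo) from a stably transfected AHR/DRE reporter in a mouse line prestimulated with kynurenic acid. Data normalized to controls, the full-inhibition control being cells without kynurenic acid; multiple determinations given as average or median values.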

[3] = Hepa 1c1c7 cells, 200 μM kynurenic acid, 20 hours, firefly luciferase reporter, read-out: AHR Antagonism Mouse IC50
[4] = mouse Hepa 1c1c7 cells, 200 μM kynurenic acid, 20 hours, read-out: AHR Antagonism Mouse IC50

IC50 (AHR [1]; firefly luciferase reporter) [M] | IC50 (AHR [2]; [3]) [nM] | IC50 (AHR [1]) [M] | IC50 (AHR [2]; [4]) [nM] | Structure (SMILES) | IC50 (AHR [2]; read-out: AHR Antagonism Mouse IC50, Hepa 1c1c7 cells, 200 μM kynurenic acid, 20 hours, firefly luciferase reporter) [nM]
9.16e-08 | 48.1 |  |  | COc1ccc(-c2nc3c4ccccc4nc(N[C@H](C)C(=O)NCC(C)(C)N)n3n2)cc1 [Example 784, N-(2-amino-2-methylpropyl)-N^2-[2-(4-methoxyphenyl)[1,2,4]triazolo[1,5-c]quinazolin-5-yl]-D-alaninamide] | 
 |  | 1.27e-07 | 253 | COc1cccc(-c2nc3c4c(C)cccc4nc(NC4CCCNC4=O)n3n2)c1 (stereo not drawn) [Example 180, 3-{[2-(3-methoxyphenyl)-10-methyl[1,2,4]triazolo[1,5-c]quinazolin-5-yl]amino}piperidin-2-one] | 
 |  | 2.86e-06 | 1830 | CN(C)Cc1noc(-c2nc3c4ccccc4nc(N[C@@H]4CCCCNC4=O)n3n2)n1 [Example 304, (3R)-3-[(2-{3-[(Dimethylamino)methyl]-1,2,4-oxadiazol-5-yl}[1,2,4]triazolo[1,5-c]quinazolin-5-yl)amino]azepan-2-one] | 
 |  | 5.94e-09 | 2.89 | NC(=O)[C@@H](CO)Nc1nc2ccccc2c2nc(-c3ccc(OC(F)(F)F)cc3)nn12 [Example 329, N^2-{2-[4-(trifluoromethoxy)phenyl][1,2,4]triazolo[1,5-c]quinazolin-5-yl}-D-serinamide] | 
5.91e-10 | 0.324 |  |  | O=C1NCCNC[C@H]1Nc1nc2c(C(F)(F)F)cccc2c2nc(-c3ccc(Cl)cc3)nn12 [Example 947, (6R)-6-{[2-(4-chlorophenyl)-7-(trifluoromethyl)[1,2,4]triazolo[1,5-c]quinazolin-5-yl]amino}-1,4-diazepan-5-one] | 
 |  | 7.43e-08 | 6.82 | O=C1NCCCC[C@@H]1Nc1nc2ccccc2c2nc(-c3ccc(Br)cc3OC(F)(F)F)nn12 [Example 682, (3S)-3-({2-[4-bromo-2-(trifluoromethoxy)phenyl][1,2,4]triazolo[1,5-c]quinazolin-5-yl}amino)azepan-2-one] | 
 |  | 1.83e-08 | 37.6 | COc1ccc(-c2nc3c4c(C5CCOCC5)cccc4nc(N[C@@H]4CCCCNC4=O)n3n2)cc1 [Example 397, (3R)-3-{[2-(4-methoxyphenyl)-10-(oxan-4-yl)[1,2,4]triazolo[1,5-c]quinazolin-5-yl]amino}azepan-2-one] | 
 |  | 2.92e-06 | 1020 | C[C@@H](Nc1nc2ccccc2c2nc(-c3cnn(C)c3)nn12)C(=O)NCCN(C)C [Example 776, N-[2-(dimethylamino)ethyl]-N^2-[2-(1-methyl-1H-pyrazol-4-yl)[1,2,4]triazolo[1,5-c]quinazolin-5-yl]-D-alaninamide] | 
 |  | 5.82e-08 | 101 | COc1ccc(-c2nc3c4ccc(Br)cc4nc(N[C@@H]4CCCCNC4=O)n3n2)cc1 [Example 229, (3R)-3-{[8-bromo-2-(4-methoxyphenyl)[1,2,4]triazolo[1,5-c]quinazolin-5-yl]amino}azepan-2-one] | 
2.46e-07 | 3130 |  |  | CCCNC(=O)[C@H](C)Nc1nc2c(Br)cccc2c2nc(-c3cnn(C)c3)nn12 [Example 795, N^2-[7-bromo-2-(1-methyl-1H-pyrazol-4-yl)[1,2,4]triazolo[1,5-c]quinazolin-5-yl]-N-propyl-L-alaninamide] | 
 |  | 2.48e-08 | 453 | Cc1cccc2nc(N[C@@H]3CCCCNC3=O)n3nc(-c4cnn(C)c4)nc3c12 [Example 183, (3R)-3-{[10-methyl-2-(1-methyl-1H-pyrazol-4-yl)[1,2,4]triazolo[1,5-c]quinazolin-5-yl]amino}azepan-2-one] | 
6.91e-09 | 4.27 |  |  | COc1ccc(-c2nc3c4cccc(OC5CC5)c4nc(N[C@@H]4CCCCNC4=O)n3n2)cc1 [Example 999, (3R)-3-{[7-(cyclopropyloxy)-2-(4-methoxyphenyl)[1,2,4]triazolo[1,5-c]quinazolin-5-yl]amino}azepan-2-one] | 
2.38e-08 | 32.2 |  |  | C[C@@H](Nc1nc2c(Br)cccc2c2nc(-c3cnn(C)c3)nn12)C(=O)N1CCOCC1 [Example 785, (2R)-2-{[7-bromo-2-(1-methyl-1H-pyrazol-4-yl)[1,2,4]triazolo[1,5-c]quinazolin-5-yl]amino}-1-(morpholin-4-yl)propan-1-one] | 
 |  | 1.27e-09 | 1.93 | COc1ccc(-c2nc3c4cc(C)ccc4nc(N[C@@H]4CCCCNC4=O)n3n2)cc1 [Example 241, (3R)-3-{[2-(4-methoxyphenyl)-9-methyl[1,2,4]triazolo[1,5-c]quinazolin-5-yl]amino}azepan-2-one] | 
 |  | > 2e-05 | 277 | O=C1NCCNCC1Nc1nc2cccc(Cl)c2c2nc(-c3cccc(F)c3)nn12 (stereo not drawn) [Example 284, 6-{[10-chloro-2-(3-fluorophenyl)[1,2,4]triazolo[1,5-c]quinazolin-5-yl]amino}-1,4-diazepan-5-one] | 
 |  | 2.87e-08 | 41.9 | Cn1ccc(-c2nc3c4ccccc4nc(N[C@@H]4CCCCNC4=O)n3n2)n1 [Example 63, (3R)-3-{[2-(1-methyl-1H-pyrazol-3-yl)[1,2,4]triazolo[1,5-c]quinazolin-5-yl]amino}azepan-2-one] | 
1.37e-08 | 20.2 |  |  | CCCNC(=O)[C@@H](C)Nc1nc2c(Br)cccc2c2nc(-c3cnn(C)c3)nn12 [Example 796, N^2-[7-bromo-2-(1-methyl-1H-pyrazol-4-yl)[1,2,4]triazolo[1,5-c]quinazolin-5-yl]-N-propyl-D-alaninamide] | 
1.12e-09 | 1.27 |  |  | O=C1NCCCC[C@H]1Nc1nc2c(C(F)(F)F)cccc2c2nc(-c3ccc(Cl)cc3)nn12 [Example 833, (3R)-3-{[2-(4-chlorophenyl)-7-(trifluoromethyl)[1,2,4]triazolo[1,5-c]quinazolin-5-yl]amino}azepan-2-one] | 
 |  | 1.26e-09 | 1.73 | O=C1NCCCC[C@H]1Nc1nc2c(C(F)(F)F)cccc2c2nc(-c3cn(C4CC4)nc3C(F)F)nn12 [Example 743, (3R)-3-({2-[1-cyclopropyl-3-(difluoromethyl)-1H-pyrazol-4-yl]-7-(trifluoromethyl)[1,2,4]triazolo[1,5-c]quinazolin-5-yl}amino)azepan-2-one] | 
 |  | > 5.71e-07 | 16.6 | CCCNC(=O)[C@H](CC)Nc1nc2c(Br)cccc2c2nc(-c3ccc(Cl)cc3OC(F)F)nn12 [Example 683, (2S)-2-({7-bromo-2-[4-chloro-2-(difluoromethoxy)phenyl][1,2,4]triazolo[1,5-c]quinazolin-5-yl}amino)-N-propylbutanamide] | 

Structure (SMILES) | IC50 (AHR [1]; firefly luciferase reporter) [M] | IC50 (AHR [2]; [3]) [nM] | IC50 (AHR [1]) [M] | IC50 (AHR [2]; [4]) [nM] | IC50 (AHR [2]; read-out: AHR Antagonism Mouse IC50, Hepa 1c1c7 cells, 200 μM kynurenic acid, 20 hours, firefly luciferase reporter) [nM]
C[C@@H](Nc1nc2c(Br)cccc2c2nc(-c3cnn(C)c3)nn12)C(=O)N1CC2(COC2)C1 [Example 917, (2R)-2-{[7-bromo-2-(1-methyl-1H-pyrazol-4-yl)[1,2,4]triazolo[1,5-c]quinazolin-5-yl]amino}-1-(2-oxa-6-azaspiro[3.3]heptan-6-yl)propan-1-one] | 3.76e-08 |  |  |  | 65.6
